In patent publication US20230278974A1, “ANTITUMORAL ASCORBIC ACID ESTERS” (SUIGENERIS FARMACOSMETICS, S.L., priority 2020, published 2023):

Tested on: primary or metastatic human cancer cells from various origins (IGR39, IGR37, MW115, MW266.4, DLD1, SW480, HCT116, NUG-C4, COLO668, BXPC3, CAPAN2, RWP1)
Test: Growth inhibition of human cancer cell lines (crystal violet staining, 96 well plates)
Assay type: cell-based
Conditions: even at concentrations as low as 0.2 mM; 72 h treatment
Excerpt: The BXPC3, CAPAN2, RWP1 cell lines from human pancreatic cancer were provided by the Biomedical Research Institute (IRB) Barcelona; the MW115 and IGR39 cell lines from human primary melanoma and MW 266.4 and IGR37 from human metastatic melanoma were provided by Dr. Manel Esteller from the Catalan Institute of Oncology (ICO) Barcelona (Vizoso M. et al., “Epigenetic activation of a cryptic TBC1D16 transcript enhances melanoma progression by targeting EGFR” Nat Med., 2015, vol 21(7), pp. 741-50); DLDL1, SW480 and HCT116 cell lines from human colon cancer were provided by Dra. Neus Agell from the Research Institute August Pi Sunyer (IDIBAPS) - University of Barcelona (UB); NUG-C4 and COLO668 cell lines from human gastric and lung cancers, respectively, were provided by the Center for Genomic Regulation (CRG) Barcelona. […]
The cells were resuspended by trypsin/EDTA digestion with 0.5% Trypsin-EDTA in the case of different human cancer cell lines, and 0.25% Trypsin-EDTA in the case of human primary endothelial cells. Once resuspended in culture medium, they were counted in Newbauer chamber after a 1:1 dilution with trypan blue. […]
The optical density values per well were obtained by a Biotek Synergy™2 multi-detection microplate reader, using a 590 nm filter and by scanning reading, obtaining the mean values per well.

SMILES: CCCCCCC1CCC(CCC(=O)OC[C@H](O)[C@H]2OC(=O)C(O)=C2O)CC1 (stereo partly drawn) [Compound Ib, (S)-2-((R)-3,4-Dihydroxy-5-Oxo-2,5-Dihydrofuran-2-Yl)-2-Hydroxyethyl 3-(4-Hexylcyclohexyl)Propanoate]
- inhibitory capacity on growth of cancer cells: remarkable inhibitory capacity
